Measurements as given in publication PMC9782245, “Synthesis and Structural Optimization of 2,7,9-Trisubstituted purin-8-ones as FLT3-ITD Inhibitors” (International Journal of Molecular Sciences, 2022).
Values joined by “and” are separate entries in the source; they are usually repeats but may differ in a detail not shown here. Equal values may be shown once. Read-outs that look alike come from different tables or passages of the source.

Key:
[1] = target: CDK4/D1 (Homo sapiens, UniProt P11802); experiment: Kinase inhibition assay CDK4/D1; type: biochemical
Sequence of CDK4/D1 (P11802 whole entry): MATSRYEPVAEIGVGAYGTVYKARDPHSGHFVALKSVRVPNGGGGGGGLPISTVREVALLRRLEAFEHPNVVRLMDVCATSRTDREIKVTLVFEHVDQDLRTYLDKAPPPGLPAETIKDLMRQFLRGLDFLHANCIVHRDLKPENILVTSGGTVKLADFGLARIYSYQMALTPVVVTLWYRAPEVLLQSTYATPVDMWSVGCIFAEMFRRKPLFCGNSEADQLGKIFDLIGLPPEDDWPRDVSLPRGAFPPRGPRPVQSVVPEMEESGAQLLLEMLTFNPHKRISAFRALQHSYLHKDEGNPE
Sequence of CDK4/D1 (P24385 whole entry partner): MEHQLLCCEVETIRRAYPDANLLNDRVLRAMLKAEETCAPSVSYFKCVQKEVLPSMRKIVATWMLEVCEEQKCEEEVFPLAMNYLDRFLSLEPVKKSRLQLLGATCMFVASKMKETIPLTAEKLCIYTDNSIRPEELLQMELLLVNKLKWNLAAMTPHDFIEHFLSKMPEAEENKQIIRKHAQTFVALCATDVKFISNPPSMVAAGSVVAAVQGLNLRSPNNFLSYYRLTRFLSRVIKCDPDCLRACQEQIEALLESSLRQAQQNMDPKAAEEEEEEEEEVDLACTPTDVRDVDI
Procedure: (§1) Newly prepared compounds 12–15 were assayed for inhibition of FLT3-ITD kinase as well as CDK4 and CDK2, known off-targets of structurally related compounds. We observed that CDK4 was sensitive to nearly all compounds with IC50 values in mid-nanomolar values.
(§2) CDK/cyclin complexes and FLT3 kinases were assayed as previously described. Protein kinase selectivity was evaluated at a single concentration (1 µM) by screening against 30 enzymes at Eurofins Discovery (France).

[2] = target: CDK2/E (Homo sapiens, UniProt P24941); experiment: Kinase inhibition assay CDK2/E; type: biochemical
Procedure: as §1, §2

[3] = target: T1, FLT3-ITD (Homo sapiens, UniProt P36888, ITD); experiment: Kinase inhibition assay FLT3-ITD; type: biochemical
T1 sequence (P36888 27-993): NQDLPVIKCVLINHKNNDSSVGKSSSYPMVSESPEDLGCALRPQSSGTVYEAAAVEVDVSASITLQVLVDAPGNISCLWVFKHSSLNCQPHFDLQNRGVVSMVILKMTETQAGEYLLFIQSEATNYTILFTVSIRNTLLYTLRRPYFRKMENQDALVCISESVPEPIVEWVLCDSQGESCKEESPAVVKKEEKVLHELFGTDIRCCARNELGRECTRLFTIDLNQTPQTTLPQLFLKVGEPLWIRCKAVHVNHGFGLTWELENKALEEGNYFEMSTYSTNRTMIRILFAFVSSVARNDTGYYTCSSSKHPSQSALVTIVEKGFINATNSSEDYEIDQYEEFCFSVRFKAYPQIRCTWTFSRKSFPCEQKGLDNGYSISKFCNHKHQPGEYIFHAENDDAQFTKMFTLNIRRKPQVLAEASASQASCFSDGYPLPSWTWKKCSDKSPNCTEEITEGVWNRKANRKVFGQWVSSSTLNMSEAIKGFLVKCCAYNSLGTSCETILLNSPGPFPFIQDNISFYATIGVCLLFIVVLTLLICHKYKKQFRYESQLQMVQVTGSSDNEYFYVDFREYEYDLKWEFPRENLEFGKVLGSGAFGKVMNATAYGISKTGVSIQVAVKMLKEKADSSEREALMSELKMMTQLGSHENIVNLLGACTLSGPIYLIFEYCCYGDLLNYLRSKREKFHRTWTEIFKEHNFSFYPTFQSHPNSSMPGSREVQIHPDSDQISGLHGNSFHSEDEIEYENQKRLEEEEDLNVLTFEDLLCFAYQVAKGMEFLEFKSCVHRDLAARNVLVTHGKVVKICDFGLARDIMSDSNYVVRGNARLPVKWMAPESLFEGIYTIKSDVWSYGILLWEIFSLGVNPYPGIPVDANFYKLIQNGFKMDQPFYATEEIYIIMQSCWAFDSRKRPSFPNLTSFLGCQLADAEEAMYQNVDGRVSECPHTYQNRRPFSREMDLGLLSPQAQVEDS
Procedure: as §1, §2

[4] = test system: K562 cells; experiment: Resazurin-based viability assay, K562; type: cell-based; details: Homo sapiens, 72 h, at least duplicate experiments
From the text: (§3) In parallel to kinase assays, we measured the effect of compounds on the viability of cancer cell lines MV4-11 and K562 using a resazurin-based assay. MV4-11 is an AML cell line dependent on a constitutively activated FLT3-ITD kinase with high sensitivity to FLT3 inhibition, K562 cells (chronic myelogenous leukemia) are independent on FLT3.
(§4) Human cell lines were obtained from the European Collection of Authenticated Cell Cultures (K562) and Cell lines service (MV4-11) and were cultivated according to the provider’s instructions. Briefly, cells were maintained in RPMI-1640 (MV4-11) or DMEM (K562) supplemented with 10% fetal bovine serum, penicillin (100 U/mL), and streptomycin (0.1 mg/mL) at 37 °C in 5% CO2. For the viability assays, cells were treated in triplicate with six different doses of each compound for 72 h. After treatments, the resazurin (Sigma Aldrich, St. Louis, MO, USA) solution was added for 4 h, and the fluorescence of resorufin corresponding to live cells was measured at 544/590 nm (excitation/emission) using a Fluoroskan Ascent microplate reader (Labsystems). The GI50 value, the drug concentration lethal to 50% of the cells, was calculated from the dose-response curves that resulted from the assays.

[5] = test system: MV4-11 cells; experiment: Resazurin-based viability assay, MV4-11; type: cell-based, Human; details: for GI50: Homo sapiens, MV4-11, 72 h, resazurin, at least duplicate experiments
From the text: as §3, §4

[6] = at least duplicate experiments, read-out: IC50 CDK4/D1
[7] = at least duplicate experiments, read-out: IC50 CDK2/E
[8] = at least duplicate experiments, read-out: IC50 FLT3-ITD

SMILES	IC50 [1, 6]	IC50 [2, 7]	melting point [°C]	IC50 [3, 8] [nM]	GI50 [4] [nM]	GI50 [5] [nM]	IC50 ([1]; read-out: IC50 CDK4) [nM]	IC50 ([3]; read-out: IC50 FLT3) [nM]	IC50 ([2]; read-out: IC50 CDK2) [nM]	selectivity index (ratio for GI50's of K562 and MV4-11 cells) ([5]; K562 / MV4-11)
FC(F)(F)c1nc2cnc(Nc3ccc(N4CCNCC4)cc3)nc2n1C1CCCC1 [12a]	51 nM	1630 nM	232 to 234	224	1110	220				
FC(F)(F)c1nc2cnc(Nc3ccc(N4CCNCC4)cc3)nc2n1C1CCCCC1 [12b]	16 nM	230 nM	218 to 220	60	1170	110				
FC(F)(F)c1nc2cnc(Nc3ccc(N4CCNCC4)cc3)nc2n1C1CCCCCC1 [12d]	22 nM	150 nM	216 to 218	88	2450	250				
O=c1[nH]c2cnc(Nc3ccc(N4CCNCC4)cc3)nc2n1C1CCCC1 [13a]	2880 nM	24500 nM	200 to 202	2370	1630	680				
O=c1[nH]c2cnc(Nc3ccc(N4CCNCC4)cc3)nc2n1C1CCCCC1 [13b]	782 nM	3360 nM		1590	1780	690				
CC1CCC(n2c(=O)[nH]c3cnc(Nc4ccc(N5CCNCC5)cc4)nc32)CC1 (stereo not shown) [13c]	451 nM	2560 nM		1050	1900	700				
O=c1[nH]c2cnc(Nc3ccc(N4CCNCC4)cc3)nc2n1C1CCCCCC1 [13d]	479 nM	1000 nM		425	1580	560				
Cn1c(=O)n(C2CC2)c2nc(Nc3ccc(N4CCNCC4)cc3)ncc21 [14b]	> 1000 nM and 8020 nM	> 20000 nM	156 to 158	642	45300	710				
Cn1c(=O)n(C2CCC2)c2nc(Nc3ccc(N4CCNCC4)cc3)ncc21 [14c]	524 nM	3900 nM		56	1040	110	400 to 520	50 to 60		
Cn1c(=O)n([C@H]2CC[C@H](O)CC2)c2nc(Nc3ccc(N4CCNCC4)cc3)ncc21 [14f]	250 nM	> 1000 nM and 2870 nM	272 to 274	132	9370	510				
Cn1c(=O)n([C@H]2CC[C@H](C)CC2)c2nc(Nc3ccc(N4CCNCC4)cc3)ncc21 [14g]	27 nM	180 nM	114 to 116	68	1260	110	≤ 300	≤ 300	≤ 300	
Cn1c(=O)n(C2CCCCCC2)c2nc(Nc3ccc(N4CCNCC4)cc3)ncc21 [14h]	22 nM	60 nM	256 to 258	34	1480	100	≤ 300	≤ 300	≤ 300	
Cn1c(=O)n(C2CCCCCCC2)c2nc(Nc3ccc(N4CCNCC4)cc3)ncc21 [14i]	25 nM	90 nM		12	2460	90	≤ 300	≤ 300	≤ 300	> 20
Cn1c(=O)n(C2CCOCC2)c2nc(Nc3ccc(N4CCNCC4)cc3)ncc21 [14k]	> 1000 nM and 2530 nM	> 1000 nM and 9250 nM	124 to 126	450	18200	590				
Cn1c(=O)n(-c2ccccc2)c2nc(Nc3ccc(N4CCNCC4)cc3)ncc21 [14m]	400 nM	3740 nM	120 to 122	54	3030	340	400 to 520	50 to 60		
Cc1ccc(-n2c(=O)n(C)c3cnc(Nc4ccc(N5CCNCC5)cc4)nc32)cc1 [14o]	169 nM	> 1000 nM and 2400 nM	126 to 128	160	7620	460				
COc1ccccc1-n1c(=O)n(C)c2cnc(Nc3ccc(N4CCNCC4)cc3)nc21 [14p]	2720 nM	1590 nM	185 to 187	306	370	310				
COc1ccc(-n2c(=O)n(C)c3cnc(Nc4ccc(N5CCNCC5)cc4)nc32)cc1 [14q]	488 nM	> 1000 nM and 6180 nM	270 to 272	262	1970	400				
COc1ccc(Cn2c(=O)n(C)c3cnc(Nc4ccc(N5CCNCC5)cc4)nc32)c(OC)c1 [14r]	> 20000 nM	> 1000 nM and 20000 nM	102 to 104	456	11900	900				
Cn1c(=O)n(-c2cccc3ccccc23)c2nc(Nc3ccc(N4CCNCC4)cc3)ncc21 [14s]	> 1000 nM and 6900 nM	> 1000 nM and 9530 nM		850	2530	330				
Cn1c(=O)n(C=Cc2ccc(F)cc2)c2nc(Nc3ccc(N4CCNCC4)cc3)ncc21 [14t]	216 nM	> 1000 nM and 7700 nM	248 to 250	345	2290	520				
CC(C)n1c(=O)n(C2CCCCC2)c2nc(Nc3ccc(N4CCNCC4)cc3)ncc21 [15b]	2120 nM	10300 nM	132 to 134	68	1510	130				
CC1CCC(n2c(=O)n(C(C)C)c3cnc(Nc4ccc(N5CCNCC5)cc4)nc32)CC1 (stereo not shown) [15c]	1100 nM	4140 nM	264 to 266	40	1450	130				
CC(C)n1c(=O)n(C2CCCCCC2)c2nc(Nc3ccc(N4CCNCC4)cc3)ncc21 [15d]	1100 nM	2320 nM		27	1180	100				
